From patent US7491723B2, “Alkanol and cycloalkanol-amine derivatives and methods of their use” (Wyeth, priority 2003, dated 2009)
Where a name gives a salt, the structure may show the parent alone.

Legend:
human hNET [1] = molecular target: T1, human hNET (Homo sapiens, UniProt P23975); assay: Norepinephrine (NE) uptake assay in MDCK-Net6 cells; type: cell-based; conditions: at 30 μM test compound, [3H]NE uptake
T1 construct: expressed in transfected cells

human hNET [2] = molecular target: T1, human hNET; assay: as above; type: cell-based; conditions: [3H]NE uptake; for inhibition at 1 µM: 1 μM test compound; for inhibition at 10 µM: at 10 μM test compound
Description: MDCK-Net6 cells, stably transfected with human hNET (Pacholczyk, T., R. D. Blakely, and S. G. Amara, Nature, 1991, 350(6316): p. 350-4) were cultured in growth medium containing high glucose DMEM (Gibco, Cat. No. 11995), 10% FBS (dialyzed, heat-inactivated, US Bio-Technologies, Lot FBD1129HI) and 500 μg/ml G418 (Gibco, Cat. No. 10131). Cells were plated at 300,000/T75 flask and cells were split twice weekly. The JAR cell line (human placental choriocarcinoma) was purchased from ATCC (Cat. No. HTB-144). The cells were cultured in growth medium containing RPMI 1640 (Gibco, Cat. No. 72400), 10% FBS (Irvine, Cat. No. 3000), 1% sodium pyruvate (Gibco, Cat. No. 1136) and 0.25% glucose. Cells were plated at 250,000 cells/T75 flask and split twice weekly. For all assays, cells were plated in Wallac 96-well sterile plates (PerkinElmer, Cat. No. 3983498).
On day 1, cells were plated at 3,000 cells/well in growth medium and maintained in a cell incubator (37° C., 5% CO2). On day 2, growth medium was replaced with 200 μl of assay buffer (25 mM HEPES; 120 mM NaCl; 5 mM KCl; 2.5 mM CaCl2; 1.2 mM MgSO4; 2 mg/ml glucose (pH 7.4, 37° C.)) containing 0.2 mg/ml ascorbic acid and 10 μM pargyline. Plates containing cells with 200 μl of assay buffer were equilibrated for 10 minutes at 37° C. prior to addition of compounds. A stock solution of desipramine was prepared in DMSO (10 mM) and delivered to triplicate wells containing cells for a final test concentration of 1 μM. Data from these wells were used to define non-specific NE uptake (minimum NE uptake). Test compounds were prepared in DMSO (10 mM) and diluted in assay buffer according to test range (1 to 10,000 nM). Twenty-five microliters of assay buffer (maximum NE uptake) or test compound were added directly to triplicate wells containing cells in 200 μl of assay buffer. The cells in assay buffer with test compounds were incubated for 20 minutes at 37° C. To initiate the NE uptake, [^3H]NE diluted in assay buffer (120 nM final assay concentration) was delivered in 25 μl aliquots to each well and the plates were incubated for 5 minutes (37° C.). The reaction was terminated by decanting the supernatant from the plate. The plates containing cells were washed twice with 200 μl assay buffer (37° C.) to remove free radioligand. The plates were then inverted, left to dry for 2 minutes, then reinverted and air-dried for an additional 10 minutes. The cells were lysed in 25 μl of 0.25 N NaOH solution (4° C.), placed on a shake table and vigorously shaken for 5 minutes. After cell lysis, 75 μl of scintillation cocktail was added to each well and the plates were sealed with film tape. The plates were returned to the shake table and vigorously shaken for a minimum of 10 minutes to ensure adequate partitioning of organic and aqueous solutions. The plates were counted in a Wallac Microbeta counter (PerkinElmer) to collect the raw cpm data.
For each experiment, a data stream of cpm values collected from the Wallac Microbeta counter was downloaded to a Microsoft Excel statistical application program. Calculations of EC50 values were made using the transformed-both-sides logistic dose response program written by Wyeth Biometrics Department. The statistical program uses mean cpm values from wells representing maximum binding or uptake (assay buffer) and mean cpm values from wells representing minimum binding or uptake ((1 μM desipramine (hNET) or 1 μM paroxetine (hSERT)). Estimation of the EC50 value was completed on a log scale and the line was fit between the maximum and minimum binding or uptake values. All graphic data representation was generated by normalizing each data point to a mean percent based on the maximum and minimum binding or uptake values. The EC50 values reported from multiple experiments were calculated by pooling the raw data from each experiment and analyzing the pooled data as one experiment.

T1 sequence (P23975 whole entry): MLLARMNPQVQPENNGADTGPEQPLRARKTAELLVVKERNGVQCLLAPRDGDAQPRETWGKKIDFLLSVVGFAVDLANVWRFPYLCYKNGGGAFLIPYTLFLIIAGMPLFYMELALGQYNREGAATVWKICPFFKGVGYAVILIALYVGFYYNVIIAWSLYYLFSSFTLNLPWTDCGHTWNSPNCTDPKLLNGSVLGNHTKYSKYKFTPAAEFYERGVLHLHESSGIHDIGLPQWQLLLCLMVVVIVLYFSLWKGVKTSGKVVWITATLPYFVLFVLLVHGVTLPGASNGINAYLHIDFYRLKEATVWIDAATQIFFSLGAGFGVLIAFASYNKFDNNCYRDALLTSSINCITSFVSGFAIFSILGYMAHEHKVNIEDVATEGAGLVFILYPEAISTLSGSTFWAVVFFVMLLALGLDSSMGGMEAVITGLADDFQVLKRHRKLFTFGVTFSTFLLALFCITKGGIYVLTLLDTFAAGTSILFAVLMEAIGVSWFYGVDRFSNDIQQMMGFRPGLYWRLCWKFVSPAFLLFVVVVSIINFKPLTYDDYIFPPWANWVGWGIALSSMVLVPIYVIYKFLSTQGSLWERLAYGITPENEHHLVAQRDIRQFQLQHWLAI

| inhibition at 1 µM (human hNET [2]) | SMILES | also measured |
| --- | --- | --- |
| 48.2% | CN1CCN(CC(c2cccc(Cl)c2)C2CCCC2)CC1 (centres unmarked) [Example 227, 1-[2-(3-chlorophenyl)-2-cyclopentylethyl]-4-methylpiperazine dihydrochloride] | – |
| 88.3% | Clc1cccc(C(CN2CCNCC2)C2CCCCC2)c1 (centres unmarked) [Example 230, 1-[2-(3-chlorophenyl)-2-cyclohexylethyl]piperazine dihydrochloride] | – |
| 91.2% | CN1CCN(CC(c2cccc(Cl)c2)C2CCCCC2)CC1 (centres unmarked) [Example 231, 1-[2-(3-chlorophenyl)-2-cyclohexylethyl]-4-methylpiperazine dihydrochloride] | – |
| 67.7% | Clc1cccc(C(CN2CCNCC2)C2CCCCCC2)c1 (centres unmarked) [Example 234, 1-[2-(3-chlorophenyl)-2-cycloheptylethyl]piperazine dihydrochloride] | – |
| 80.5% | CN1CCN(CC(c2cccc(Cl)c2)C2CCCCCC2)CC1 (centres unmarked) [Example 235, 1-[2-(3-chlorophenyl)-2-cycloheptylethyl]-4-methylpiperazine dihydrochloride] | – |
| 72.9% | OC1CCCCC1C(CN1CCNCC1)c1cccc(Cl)c1 (centres unmarked) [Example 238, 2-[1-(3-chlorophenyl)-2-piperazin-1-ylethyl]cyclohexanol dihydrochloride] | – |
| 31% | CC(C)(O)C(CN1CCNCC1)c1cccc(Cl)c1 (centres unmarked) [Example 275, 3-(3-chlorophenyl)-2-methyl-4-piperazin-1-ylbutan-2-ol dihydrochloride] | – |
| 4% | CN1CCN(CC(c2cccc(Cl)c2)C(C)(C)O)CC1 (centres unmarked) [Example 276, 3-(3-chlorophenyl)-2-methyl-4-(4-methylpiperazin-1-yl)butan-2-ol dihydrochloride] | – |
| 41% | CN1CCN(CC(c2cccc(Cl)c2)C2(O)CCC3CCCCC3C2)CC1 (centres unmarked) [Example 332, 2-[1-(3-chlorophenyl)-2-(4-methypiperazin-1-yl)ethyl]decahydronaphthalen-2-ol dihydrochloride] | – |
| 71.7% | CC1CCC(O)(C(CN2CCNCC2)c2cccc(Cl)c2)CC1 (centres unmarked) [Example 334, 1-[1-(3-chlorophenyl)-2-piperazin-1-ylethyl]-4-methylcyclohexanol dihydrochloride] | – |
| 49.5% | CC1CCC(O)(C(CN2CCN(C)CC2)c2cccc(Cl)c2)CC1 (centres unmarked) [Example 335, 1-[1-(3-chlorophenyl)-2-(4-methylpiperazin-1-yl)ethyl]-4-methylcyclohexanol dihydrochloride] | – |
| 29% | CCC1CCC(O)(C(CN2CCN(C)CC2)c2cccc(Cl)c2)CC1 (centres unmarked) [Example 336, 1-[1-(3-chlorophenyl)-2-(4-methylpiperazin-1-yl)ethyl]-4-ethylcyclohexanol dihydrochloride] | – |

The remaining lines, values behind:

| SMILES | inhibition at 1 µM (human hNET [2]) | also measured |
| --- | --- | --- |
| CC1(C)CC(C)(C)CC(O)(C(CN2CCNCC2)c2cccc(Br)c2)C1 (centres unmarked) [Example 87, 1-[1-(3-bromophenyl)-2-piperazin-1-ylethyl]-3,3,5,5-tetramethylcyclohexanol dihydrochloride] | – | inhibition at 30 µM (human hNET [1]): 47% |
| CN1CCN(CC(c2cccc(Br)c2)C2(O)CC(C)(C)CC(C)(C)C2)CC1 (centres unmarked) [Example 88, 1-[1-(3-bromophenyl)-2-(4-methylpiperazin-1-yl)ethyl]-3,3,5,5-tetramethylcyclohexanol dihydrochloride] | 16% | – |
| CC(C)(C)C1CCC(O)(C(CN2CCNCC2)c2cccc(Cl)c2)CC1 (centres unmarked) [Example 93, 4-tert-butyl-1-[1-(3-chlorophenyl)-2-piperazin-1-ylethyl]cyclohexanol dihydrochloride] | 12% | – |
| CCC(O)(CC)C(CN1CCN(C)CC1)c1cccc(Cl)c1 (centres unmarked) [Example 94, 2-(3-chlorophenyl)-3-ethyl-1-(4-methylpiperazin-1-yl)pentan-3-ol dihydrochloride] | – | inhibition at 30 µM (human hNET [1]): 71% |
| CC(C)(C)C1CCC(O)(C(CN2CCNCC2)c2cccc(Br)c2)CC1 (centres unmarked) [Example 96, 1-[1-(3-bromophenyl)-2-piperazin-1-ylethyl]-4-tert-butylcyclohexanol dihydrochloride] | – | inhibition at 30 µM (human hNET [1]): 100% |
| CN1CCN(CC(c2cccc(Cl)c2)C2(O)CCC(C(C)(C)C)CC2)CC1 (centres unmarked) [Example 101, 4-tert-butyl-1-[1-(3-chlorophenyl)-2-(4-methylpiperazin-1-yl)ethyl]cyclohexanol dihydrochloride] | – | inhibition at 30 µM (human hNET [1]): 100% |
| OC1(C(CN2CCNCC2)c2cccc(Br)c2)CCOCC1 (centres unmarked) [Example 103, 4-[1-(3-bromophenyl)-2-piperazin-1-ylethyl]tetrahydro-2H-pyran-4-ol dihydrochloride] | – | inhibition at 30 µM (human hNET [1]): 69% |
| OC1(C(CN2CCNCC2)c2cccc(Br)c2)C2CC3CC(C2)CC1C3 (centres unmarked) [Example 107, 2-[1-(3-bromophenyl)-2-piperazin-1-ylethyl]adamantan-2-ol dihydrochloride] | – | inhibition at 30 µM (human hNET [1]): 67% |
| COc1ccc(C(CN2CCNCC2)C2(O)CCOCC2)cc1Br (centres unmarked) [Example 110, 4-[1-(3-bromo-4-methoxyphenyl)-2-piperazin-1-ylethyl]tetrahydro-2H-pyran-4-ol dihydrochloride] | – | inhibition at 30 µM (human hNET [1]): 54% |
| Clc1cccc(C(CN2CCNCC2)C2CCCC2)c1 (centres unmarked) [Example 226, 1-[2-(3-chlorophenyl)-2-cyclopentylethyl]piperazine dihydrochloride] | 53% | – |
| CC1(C)CC(C)(C)CC(O)(C(CN2CCNCC2)c2cccc(Cl)c2)C1 (centres unmarked) [Example 277, 1-[1-(3-chlorophenyl)-2-piperazin-1-ylethyl]-3,3,5,5-tetramethylcyclohexanol dihydrochloride] | 17% | – |
| CN1CCN(CC(c2cccc(Cl)c2)C2(O)CC(C)(C)CC(C)(C)C2)CC1 (centres unmarked) [Example 278, 1-[1-(3-chlorophenyl)-2-(4-methylpiperazin-1-yl)ethyl]-3,3,5,5-tetramethylcyclohexanol dihydrochloride] | 25% | – |
| OC1(C(CN2CCNCC2)c2cccc3ccccc23)CCC2CCCCC2C1 (centres unmarked) [Example 329, 2-[1-(1-naphthyl)-2-piperazin-1-ylethyl]decahydronaphthalen-2-ol dihydrochloride] | – | inhibition at 10 µM (human hNET [2]): 20.9% |
| CN1CCN(CC(c2cccc(Cl)c2)C2(O)CCCC3CCCCC32)CC1 (centres unmarked) [Example 331, 1-[1-(3-chlorophenyl)-2-(4-methylpiperazin-1-yl)ethyl]decahydronaphthalen-1-ol dihydrochloride] | – | inhibition at 10 µM (human hNET [2]): 11.4% |
